Data: patent publication US20150125915A1, “Method for Producing Lactic Acid” (Kao Corporation, priority 2012, published 2015)

What was measured:
[1] = tested on: Rhizopus oryzae JCM14625 strain (=NBRC 5384); experiment: LDH activity evaluation-1: mycelia prepared from spores in surfactant-supplemented PDB medium, LDH activity of fungus body extract; format: cell-based
Description: A loopful of a cryopreserved spore suspension sample (−80° C.) of a Rhizopus oryzae JCM14625 strain (=NBRC 5384) obtained from a culture collection Riken BioResource Center (BRC) was inoculated to a PDA medium (Difco Potato Dextrose Agar, manufactured by Becton, Dickinson and Company) and then statically cultured at 30° C. for from 7 to 10 days. After visual confirmation of hyphal growth and blackening at the ends of hyphae associated with sporulation, from 30 to 40 mL of saline was added thereto. Spores, together with hyphae, were collected into a 50-mL centrifugal tube with a lid (manufactured by Greiner bio-one) using a platinum loop and then vigorously mixed in the tube. The spore suspension thus mixed was filtered through 3GP100 cylindrical funnel-shaped glass filter (manufactured by Shibata Scientific Technology Ltd.). The resulting filtrate was used as a spore solution. The number of spores in the spore solution was measured using a hemocytometer (D=1/50 mm· 1/400 mm^2) after appropriate dilution with saline.
80 mL of a PDB medium non-supplemented or supplemented with 0.5% (w/v) (final concentration) of each surfactant described below was applied to a 200-mL baffled Erlenmeyer flask (manufactured by Asahi Glass Co., Ltd.). The Rhizopus oryzae spore suspension prepared in Production Example 1 was inoculated thereto at a dose of 1×10^3 spores/mL of the medium and then cultured at 27° C. for 3 days with stirring at 170 rpm. Since mycelia would remain on the filter, the cultures were filtered through a stainless sieve of 250 μm in mesh size (manufactured by AS ONE Corp.) sterilized in advance to recover fungus bodies onto the filter.
From3.0 to 4.0 g (wet weight) of the recovered fungus bodies was inoculated to 100 mL of an inorganic culture medium (composition: 10% glucose, 0.1% ammonium sulfate, 0.06% potassium dihydrogen phosphate, 0.025% magnesium sulfate heptahydrate, 0.009% zinc sulfate heptahydrate, and 5.0% calcium carbonate; all the concentrations mean % (w/v)) applied to a 500-mL Erlenmeyer flask, and then cultured at 27° C. for approximately 40 hours with stirring at 220 rpm. Subsequently, the cultures thus obtained by culture in the inorganic culture medium were filtered using a stainless screen filter holder (manufactured by EMD Millipore) sterilized in advance to recover fungus bodies onto the filter. On this filter holder, the fungus bodies were further washed with 100 mL of saline. The saline used in washing was removed by suction filtration. The obtained fungus bodies were used in the following LDH activity evaluation and evaluation of the ability to fermentatively produce lactic acid.
6.0 g of the wet fungus bodies of the genus Rhizopus obtained in Production Example 3 was inoculated to 40 mL of an inorganic culture medium for lactic acid production evaluation (composition: 8.0% glucose, 0.1% ammonium sulfate, 0.06% potassium dihydrogen phosphate, 0.025% magnesium sulfate heptahydrate, 0.009% zinc sulfate heptahydrate, and 5.0% calcium carbonate; all the concentrations mean % (w/v)) applied to a 200-mL Erlenmeyer flask, and then cultured at 35° C. with stirring at 170 rpm. After 4.5-hour culture of the fungus bodies of the genus Rhizopus with stirring, the fungus bodies were filtered using a stainless screen filter holder (manufactured by EMD Millipore) sterilized in advance to recover fungus bodies onto the filter. On this filter holder, the fungus bodies were further washed with 100 mL of saline. The saline used in washing was removed by suction filtration. 0.3 g of the obtained fungus bodies was recovered into a 3-mL disruption tube (manufactured by Yasui Kikai Corp.). Metal cone for 3 mL (manufactured by Yasui Kikai Corp.) was added to the tube, which was then capped and then frozen in liquid nitrogen. The frozen 3-mL disruption tube was applied to Multi-Beads Shocker (manufactured by Yasui Kikai Corp.). The fungus bodies were disrupted at 1700 rpm for 10 seconds.

[2] = tested on: Rhizopus oryzae JCM14625 strain (=NBRC 5384); experiment: Evaluation of ability to produce lactic acid-1 (production rate of lactic acid); format: cell-based; conditions: 0.5% (w/v) surfactant in PDB medium at spore germination; rate in the absence of the surfactant = 100
Description: Specifically, the mycelia of a fungus of the genus Rhizopus were prepared by the method of Production Example 2 using the surfactant and then grown by the method of Production Example 3. 6.0 g of the obtained wet fungus bodies of the genus Rhizopus was inoculated to 40 mL of an inorganic culture medium for lactic acid production evaluation (composition: 8.0% glucose, 0.1% ammonium sulfate, 0.06% potassium dihydrogen phosphate, 0.025% magnesium sulfate heptahydrate, 0.009% zinc sulfate heptahydrate, and 5.0% calcium carbonate; all the concentrations mean % (w/v)) applied to a 200-mL Erlenmeyer flask, and then cultured at 35° C. with stirring at 170 rpm. The supernatant of the culture medium was recovered every 2 hours from 30 minutes after the fungus body inoculation. Glucose and lactic acid were quantified by the procedures described later in Reference Example 1. A relative value of the production rate of lactic acid was determined on the basis of the calculation method described in Reference Example 2.
Glucose and lactic acid were quantified using an HPLC apparatus LaChrom Elite (manufactured by Hitachi High-Technologies Corp.). The analytical column used was a carbohydrate/organic acid analysis column HPX-87H (7.8 mm I.D.×30 cm, manufactured by Bio-Rad Laboratories, Inc.) connected with a guard column Cation H (4.6 mm I.D.×3.0 cm, manufactured by Bio-Rad Laboratories, Inc.). Elution was performed under conditions involving 10 mM sulfuric acid as an eluent, a flow rate of 0.85 mL/min, and a column temperature of 50° C. Glucose and lactic acid were detected using a differential refractive index detector (RI detector) and a UV detector (detection wavelength: 210 nm), respectively. The standard samples used were glucose (distributor code: 049-31165, manufactured by Wako Pure Chemical Industries Ltd.), and lithium L-lactate (product number: L2250, manufactured by Sigma-Aldrich Inc.). Quantification was performed on the basis of concentration calibration curves prepared using these standard samples.
The supernatant sample of each culture medium to be subjected to HPLC analysis was appropriately diluted in advance with 37 mM sulfuric acid and then applied to DISMIC-13cp (0.20 μm cellulose acetate membrane, manufactured by […] Group) or MULTI SCREEN MNHV45 (0.45 μm Durapore membrane, manufactured by EMD Millipore) to remove insoluble matter.
The concentration of lactic acid (unit: g of lactic acid/L of medium) in the supernatant sample of each culture medium was measured according to Reference Example 1 and divided by a time (unit: hr) required for change in lactic acid concentration to calculate the production rate of lactic acid per unit time (unit: g of lactic acid/L/hr). In addition, a relative value to the production rate of lactic acid under control conditions in each Production Example was determined.

Sorbitan monolaurate
LDH activity compared with control fungus bodies (in words) ([1]; 0.5% (w/v) surfactant at spore germination, versus medium non-supplemented with the surfactant): higher LDH activity | LDH activity (relative value) ([1]; 0.5% (w/v) surfactant in PDB medium at spore germination, LDH activity in the absence of the surfactant = 100): 267 relative value | Production rate of lactic acid (relative value) [2]: 152 relative value
